# Tests used:
# [1] = tested on: intact rat aortae (aortic rings); assay: [3H]AA release in intact rat aortae; format: cell-based; conditions: for [3H]AA release from aortic rings: 5 minutes, then ET-1 dose range
# Method: Measurement of [^3H]AA release in intact rat aortae. Aortic rings (1.5 mm long) were placed in 1 mL of physiological saline solution (PSS, containing 130 mM NaCl, 5 mM KCl, 1.5 mM CaCl2, 1.2 mM MgCl2, 10 mM HEPES, and 10 mM glucose adjusted to pH 7.2 with NaOH) and incubated with 2.5 μCi of [^3H]AA (specific activity of 91.8 Ci/mmol) for 24 h at 4° C. Rat aortae were subsequently washed in 50 mL of Kreb's buffer and then subjected to the vasoactivity assay. Initial background [^3H]AA release was determined following 30 min of equillibration for each aortic ring prior to treatment by removing 200 μL of Kreb's buffer (total volume of 7 mL each) from each bath, and measuring radioactivity (in cpm) after the addition of 1 mL of scintillant (EcoLume, ICN Inc., Calif.) using a liquid scintillation counter (1209 Rackbeta, WALLAC Inc., Md.). Subsequently, aortic rings were treated with sPLA2 alone or Aβ1-40 (1 μM) in the presence or absence of a MEK1/2 inhibitor (PD 98059) or a cPLA2 inhibitor (AACOCF3) for 5 min, or went untreated for the same length of time (control). Quantification of [^3H]AA release was then preformed as described above. All aortic rings were then subjected to a dose range of ET-1 (1, 2.5, and 5 nM), and radioactivity was measured 5 min after the first dose of ET-1 (1 nM), and 20 min after the second (2.5 nM) and third (5 nM) doses of ET-1. Radioactivity incorporated into each ring was determined by placing the aortic ring in 1 mL of scintillant and assaying as described above. Results are expressed as the means ±1 SE of the percentage of [^3H]AA incorporated for each aortic ring [([^3H]AA released—[^3H]AA initial background)/incorporated [^3H]AA].
# (§1) Statistical analysis. Analysis of variance (ANOVA) was used to analyze the data, with post-hoc comparisons of means carried out where appropriate by Sheffe's or Bonferonni's methods. As previously described (Paris et al., Neurosci Lett, 1998), a significant interactive term by ANOVA was taken as evidence that both drug x and Aβ are modulating a common signal transduction pathway. […] Levene's test for equality of variance followed by t-test for independent samples was used for single mean comparisons. Alpha levels were set at 0.05 for all analyses. Analyses were performed using SPSS for Windows release 9.5.
# [2] = tested on: rat aortae (aortic rings); assay: Vessel bath vasoactivity assay: ET-1-induced vasoconstriction of rat aortic rings and its enhancement by Aβ or sPLA2; format: cell-based
# Method: Vessel experiments. Freshly dissected aortae were prepared from normal male Sprague-Dawley rats (7-8 months old, purchased from Zivic Miller, Zelienople, Pa.) as previously described by Paris et al, Exp Neurol 1998 and Exp Neurol 1999. Rat aortae were segmented into rings and suspended in Kreb's buffer on hooks connected to a tensiometer linked to a MacLab system. Aortic rings were equilibrated for 2 hours, in 7 mL tissue baths containing Kreb's buffer oxygenated with 95% O2: 5% CO2, and thermoregulated to 37° C. A baseline tension of 2 g was applied to each ring, and the first set of aortic rings was pretreated with the various compounds named above either alone or in combination with Aβ peptides. After 5 minutes of incubation in the presence or absence of Aβ, this first set of vessels was subjected to a dose range of ET-1 (from 1 nM to 5 nM). A second set of vessels was treated with 1 μM of Aβ peptides prior to the addition of ET-1. A third set (control) received only ET-1 treatment. Each ET-1 dose was added only after the constriction response to the previous dose had reached a plateau. In all cases the means ±1 standard error (SE) of the percentage vasoconstriction increase over baseline were determined for each dose of ET-1 used.
# as §1
# [3] = tested on: N9 microglia; assay: [3H]AA release in cultured microglial cells; format: cell-based, murine; conditions: FIG. 24
# Method: Measurement of [^3H]AA release in cultured cells. Microglial cells were cultured as described above, seeded at 50,000 cells/well in 6-well plates (Falcon, France), and incubated with 0.4 μCi/mL [^3H]AA for 18 h. Cells were washed multiple times with 1 mL of complete medium and were then treated with 1 μM of Aβ1-40 or 10 U/mL of sPLA2 for 5 h. Cell culture supernatants were collected each hour following treatment and radioactivity was quantified as described above.
# as §1
# [4] = tested on: NGF-β differentiated PC12 cells; assay: [3H]AA release in neuronal cells; format: cell-based, rat; conditions: FIG. 25
# Method: Measurement of [^3H]AA release in neuronal cells (cultured differentiated PC12 cells). A rat pheochromocytoma cell line (PC12) was grown in Kahn's modification of F12 medium supplemented with 10% fetal calf serum, 100 U/mL penicillin and […] streptomycin. PC12 cells were seeded at 35,000 cells/well and differentiated with 60 ng/mL NGF-β for 5-6 days and then maintained with 5 ng/mL NGF-β thereafter. PC12 cells were treated with 0.4 μCi/mL of [^3H]AA for 18 h and were washed multiple times with 1 mL of complete medium to remove unincorporated [^3H]AA. Cells were then treated with 1 μM of Aβ1-40 or 40 U/mL of sPLA2 for 5 h. Cell culture supernatants were collected each hour following treatment and radioactivity was quantified as described above.
# Statistical analysis. Analysis of variance (ANOVA) was used to analyze the data, with post-hoc comparisons of means carried out where appropriate by Sheffe's or Bonferonni's methods. Levene's test for equality of variance followed by t-test for independent samples was used for single mean comparisons. Alpha levels were set at 0.05 for all analyses. Analyses were performed using SPSS for Windows release 9.5.
# [5] = tested on: N9 microglial cells; assay: Leukotriene B4 (LTB4) ELISA on microglial cell supernatants; format: cell-based, murine; conditions: 18 hours, FIG. 23
# Method: Leukotriene -B4 (LTB4) enzyme-linked immunoabsorbant assay (ELISA). Quantitative determination of LTB4 levels was made using a competitive binding ELISA (R&D Systems, Minneapolis, Minn.) designed to measure LTB4 in cell culture supernatants (as described in Paris et al., Exp Neurol 1999). A murine microglial cell line (N9) was provided by Dr. Paola Ricciardi-Castagnoli (Cellular Pharmacology Center, Milan, Italy) and were grown in RPMI medium supplemented with five percent fetal calf serum, 2 mM glutamine, 100 U/mL penicillin, […] streptomycin and 0.05 mM 2-mercaptoethanol. Microglial cells were seeded at 50,000 cells/well in 6-well plates (Falcon, France) and treated with Aβ1-40 (500 nM), drugs which oppose the PLA2/AA/5-LOX/COX-2 pathway, or untreated (control) and incubated for 18 hours. Cell supernatants were then collected and diluted 10-fold in assay buffer. 50 μL of diluted samples were then used in the assay, and each sample was assayed in duplicate. Manipulations were performed in accordance with the manufacturer's instruction. A spectramax 250 spectrophotometer (Molecular Devices, San Diego, USA) was used to measure absorbance at 405 nm and a standard curve was plotted using a 4-parameter model.
# as §1
# [6] = tested on: rat aortae (aortic rings); conditions: cited from earlier work; for magnitude of constriction induced by ET-1 in isolated mammalian vessels: freshly solubilized, previously shown (Crawford et al., 1998)
# [7] = tested on: p38 MAPK in differentiated PC12 cells; assay: Immunolocalization of activated p38 MAPK in neuronal cells; format: cell-based, rat; conditions: 10 and 20 min, FIG. 26
# Method: Immunolocalization of activated p38 MAPK in neuronal cells. Cells were treated as described above, and were plated on glass cover-slips which had been soaked in 10 μg/mL of mouse laminin. Following differentiation, neuronal cells were treated with soluble Aβ1-40 (5 μM) or anasomycin (20 μM, a known stimulator of p38 MAPK) for 10 and 20 min, and immediately fixed in 4% paraformaldehyde in 0.1 M PBS, pH 7.4 for 30 min at 4° C. Cells were washed multiple times in PBS, and incubated for 3 h with a phospho-specific antibody recognizing active active p38 MAPK. Cells were then washed multiple times in PBS and incubated with a secondary HRP-conjugated antibody. Immunostaining was performed using the DAKO ABC kit, cells were counterstained with hematoxylin-eosin, and cells were then observed under a microscope.
# [8] = 5 μM with 1 μM Aβ1-40, FIGS. 11, 19
molecule,measurement,setting,value
CCCCC/C=C\C/C=C\C/C=C\C/C=C\CCCC(=O)C(F)(F)F [AACOCF3],effect on Aβ-induced [3H]AA release from aortic rings,"[1]; 1 μM with Aβ1-40 1 μM, FIG. 21",inhibited
"type I sPLA2: secretory porcine pancreatic PLA2 (type I sPLA2), purchased from Sigma",effect on ET-1-induced vasoconstriction,"[2]; 1 U/mL, 5 minutes prior to ET-1 dose range, FIG. 6",able to enhance the vasoconstriction induced by ET-1
same,intrinsic vasoactive properties,"[2]; added directly into the vessel bath, without ET-1",does not display intrinsic vasoactive properties
same,[3H]AA release in N9 microglia,[3]; 10 U/mL for 5 h,induces the release of [^3H]AA
same,[3H]AA release from aortic rings,"[1]; 10 U/mL, FIG. 20",increased release of [^3H]AA
same,[3H]AA release in neuronal cells,[4]; 40 U/mL for 5 h,induces the release of [^3H]AA
"Aβ1-40: soluble β-amyloid peptide containing forty amino acids, obtained from QCB",microglial LTB4 release,[5]; 500 nM,increased release of LTB4
same,magnitude of constriction induced by ET-1 in isolated mammalian vessels,[6],increase the magnitude of constriction induced by ET-1
same,enhancement of ET-1-induced vasoconstriction versus Aβ-free condition,"[2]; 50 nM dose, across 2.5 nM and 5 nM ET-1, FIG. 1",significant difference
same,duration of ET-1-induced vasoconstriction (vasotension t=0 to 10 minutes after 5 nM ET-1),"[2]; 1 μM, 5 minutes prior to ET-1 (1, 2.5, 5 nM), FIG. 2",induces a long-lasting vasoconstriction
same,lowest dose giving sustained constriction / enhancement of ET-1-induced vasoconstriction,[2]; freshly solubilized peptide,≤ 50 nM
same,[3H]AA release in N9 microglia,[3]; 1 μM for 5 h,stimulates AA release from N9 microglia
same,activation of p38 MAPK (phospho-specific immunostaining),[7]; Aβ1-40 5 μM,increases the phosphorylation of p38 MAPK
same,[3H]AA release from aortic rings,"[1]; Aβ1-40 1 μM, FIG. 21",enhances the release of [^3H]AA from aortic rings
same,[3H]AA release in neuronal cells,[4]; 1 μM for 5 h,stimulates AA release from neuronal cells
Oc1ccc(-c2nc(-c3ccncc3)c(-c3ccc(F)cc3)[nH]2)cc1 [SB 202190],effect on Aβ-induced microglial LTB4 release,[5]; 5 μM with Aβ1-40 500 nM,complete blockade of Aβ-induced microglial LTB4 release
same,effect on Aβ vasoactivity (Aβ1-40 enhancement of ET-1-induced vasoconstriction),[2]; [8],complete inhibition of Aβ vasoactivity
COc1cccc(-c2cc(=O)c3ccccc3o2)c1N [PD 98059],effect on Aβ-induced microglial LTB4 release,[5]; 25 μM with Aβ1-40 500 nM,complete blockade of Aβ-induced microglial LTB4 release
same,effect on Aβ vasoactivity (Aβ1-40 enhancement of ET-1-induced vasoconstriction),"[2]; 25 μM with 1 μM Aβ1-40, FIGS. 5, 16",complete blockade
same,effect on Aβ1-42 vasoactivity,"[2]; 25 μM with 1 μM Aβ1-42, FIG. 17",complete blockade
same,effect on sPLA2 enhancement of ET-1-induced vasoconstriction,"[2]; 25 μM with 2.5 U/mL sPLA2, FIG. 18",completely inhibit sPLA2 enhancement of ET-1-induced vasoconstriction
same,effect on Aβ-induced [3H]AA release from aortic rings,"[1]; 25 μM with Aβ1-40 1 μM, FIG. 22",blocked
CS(=O)(=O)Nc1ccc([N+](=O)[O-])cc1OC1CCCCC1 [NS-398],effect on Aβ-induced microglial LTB4 release,[5]; 50 μM with Aβ1-40 500 nM,complete blockade of LTB4 release
same,effect on Aβ vasoactivity (Aβ1-40 enhancement of ET-1-induced vasoconstriction),[2]; [8],able to block Aβ vasoactivity
"Aβ1-42: soluble β-amyloid peptide with forty-two amino acids, obtained from QCB",magnitude of constriction induced by ET-1 in isolated mammalian vessels,[6],increase the magnitude of constriction induced by ET-1
COc1ccc(C[C@H]2NC[C@H](O)[C@H]2OC(C)=O)cc1 [anisomycin],activation of p38 MAPK (phospho-specific immunostaining),[7]; 20 μM,"brown immunostaining is intensified, and a strong nuclear staining is evident"
Nc1ncnc2c1ncn2C1CCCO1 (stereo not drawn) [SQ-22536],effect on Aβ vasoactivity,"[6]; adenylyl cyclase inhibitor, reference given",does not have any effect on the vasoactive properties of Aβ

# — patent US7605149B1, “Modulation of the phospholipase A2 pathway as a therapeutic” (University of South Florida, priority 1998, dated 2009)
